Test results: US10682353B2, “Varlitinib for use in the treatment of resistant or refractory cancer” (ASLAN Pharmaceuticals PTE LTD, priority 2015, dated 2020)

Assays:
Type in all cases: in vivo, human
[1] = test system: stage IV, extra-hepatic cholangiocarcinoma; experiment: Example 2: Varlitinib 400 mg bi-daily combination therapy followed by monotherapy in a patient
Experimental: A person, stage IV, extra-hepatic cholangiocarcinoma, prior treatment: • Whipple • Radiotherapy • Gemzar/cisplatin for 6 months For the first 6 cycles, the patient received Varlitinib 400 mg BID continuously with cisplatin (80 mg/m^2 every 3 weeks) and capecitabine (1000 mg/m2 BID, 2 weeks on, 1 week off). […] In summary, the patient received varlitinib with chemo for 6 cycles and varlitinib monotherapy for another 4 cycles (3 weeks per cycle).

[2] = test system: intrahepatic cholangiocarcinoma, stage IV; experiment: Example 3: Varlitinib 400 mg bi-daily orally and FOLFOX in a patient (ASLAN001-002SG study)
Source text: They received left hemihepatectomy followed by 6 cycles of adjuvant gemcitabine and cisplatin.

[3] = test system: stage IV cholangiocarcinoma EGFR positive (3+) cancer; experiment: Example 1: Varlitinib 400 mg bi-daily monotherapy in a patient; details: after treatment cycle 6, Varlitinib 400 mg bi-daily monotherapy

C[C@@H]1COC(Nc2ccc3ncnc(Nc4ccc(OCc5nccs5)c(Cl)c4)c3c2)=N1 [Varlitinib, (R)—N4-[3-Chloro-4-(thiazol-2-ylmethoxy)-phenyl]-N6-(4-methyl-4,5,-dihydro-oxazol-2-yl)-quinazoline-4,6-diamine]
reduction in tumour size (tumor scan) ([1]; end of cycle 8, varlitinib monotherapy after 6 cycles of combination with cisplatin and capecitabine): 87%
image scan outcome based on RECIST ([1]; end of cycle 10, on varlitinib monotherapy, criterion >20% increase against nadir): disease progression
reduction in tumor size as the best response from baseline ([2]; Varlitinib 400 mg BID with mFOLFOX6 for 9 cycles, then 9 cycles varlitinib monotherapy (2 weeks per cycle), one patient): 53%
latest tumor assessment (response) ([2]; after cycle 18, 9 cycles Varlitinib 400 mg BID and mFOLFOX6, then 9 cycles varlitinib monotherapy): partial response
tumour marker CA 19-9 ([3]; fell from ~900 U/ml): ~250 U/ml
liver tumours decreased in size ([3]; one patient progressive after gemcitabine and cisplatin/5-FU): up to 23%
